# Test: Toxicokinetics of S9229 in the 28-day rat study
# Assay type: in vivo, Sprague-Dawley rats
# Settings: for AUC0-24hr Ratio / Cmax Ratio: vs 10 mg/kg dose; for AUC(0-t) / Cmax / Tmax / half-life: rat, plasma, po; for AUC(0-t): AUC0-24hr
# [1] = female, Sprague-Dawley (Crl:CD(SD)), 10 mg/kg, Day 1, 10 mg/kg bw, F
# [2] = female, Sprague-Dawley (Crl:CD(SD)), 30 mg/kg, Day 1, 30 mg/kg bw, F
# [3] = female, Sprague-Dawley (Crl:CD(SD)), 100 mg/kg, Day 1, 100 mg/kg bw, F
# [4] = female, Sprague-Dawley (Crl:CD(SD)), 100 mg/kg, Day 28, 100 mg/kg bw, F
# [5] = female, Sprague-Dawley [Crl:CD(SD)], 10 mg/kg, Day 28, 10 mg/kg bw, F
# [6] = female, Sprague-Dawley [Crl:CD(SD)], 30 mg/kg, Day 28, 30 mg/kg bw, F
# [7] = male, Sprague-Dawley (Crl:CD(SD)), 10 mg/kg, Day 1, 10 mg/kg bw, M
# [8] = male, Sprague-Dawley (Crl:CD(SD)), 10 mg/kg, Day 28, 10 mg/kg bw, M
# [9] = male, Sprague-Dawley (Crl:CD(SD)), 30 mg/kg, Day 1, 30 mg/kg bw, M
# [10] = male, Sprague-Dawley (Crl:CD(SD)), 100 mg/kg, Day 1, 100 mg/kg bw, M
# [11] = male, Sprague-Dawley (Crl:CD(SD)), 100 mg/kg, Day 28, 100 mg/kg bw, M
# [12] = male, Sprague-Dawley [Crl:CD(SD)], 30 mg/kg, Day 28, 30 mg/kg bw, M
smiles,measurement,setting,value
"COC[C@@H](CC(C)C)NC(=O)c1ccc(C)c(C)c1 [S9229, (R)-N-(1-methoxy-4-methylpentan-2-yl)-3,4-dimethylbenzamide]",AUC0-24hr Ratio,"Day 1, 10 mg/kg bw, F",1
same,Cmax Ratio,"Day 1, 10 mg/kg bw, F",1
same,AUC0-24hr Ratio,"Day 1, 10 mg/kg bw, M",1
same,Cmax Ratio,"Day 1, 10 mg/kg bw, M",1
same,AUC0-24hr Ratio,"Day 1, 30 mg/kg bw, F",1.11
same,Cmax Ratio,"Day 1, 30 mg/kg bw, F",0.55
same,AUC0-24hr Ratio,"Day 1, 30 mg/kg bw, M",6.62
same,Cmax Ratio,"Day 1, 30 mg/kg bw, M",7.06
same,AUC0-24hr Ratio,"Day 1, 100 mg/kg bw, F",23.4
same,Cmax Ratio,"Day 1, 100 mg/kg bw, F",22.8
same,AUC0-24hr Ratio,"Day 1, 100 mg/kg bw, M",48.3
same,Cmax Ratio,"Day 1, 100 mg/kg bw, M",61.8
same,AUC0-24hr Ratio,"Day 28, 10 mg/kg bw, F",1
same,Cmax Ratio,"Day 28, 10 mg/kg bw, F",1
same,AUC0-24hr Ratio,"Day 28, 10 mg/kg bw, M",1
same,Cmax Ratio,"Day 28, 10 mg/kg bw, M",1
same,AUC0-24hr Ratio,"Day 28, 30 mg/kg bw, F",6.90
same,Cmax Ratio,"Day 28, 30 mg/kg bw, F",4.85
same,AUC0-24hr Ratio,"Day 28, 30 mg/kg bw, M",10.4
same,Cmax Ratio,"Day 28, 30 mg/kg bw, M",5.67
same,AUC0-24hr Ratio,"Day 28, 100 mg/kg bw, F",68.6
same,Cmax Ratio,"Day 28, 100 mg/kg bw, F",57.2
same,AUC0-24hr Ratio,"Day 28, 100 mg/kg bw, M",71.1
same,Cmax Ratio,"Day 28, 100 mg/kg bw, M",33.6
same,AUC(0-t),[1],11.4 ± 11.1 ng·h/mL
same,Cmax,[1],15.6 ± 17 ng/mL
same,Tmax,[1],0.5 h
same,AUC(0-t),[2],12.6 ± 2.8 ng·h/mL
same,Cmax,[2],8.6 ± 2.6 ng/mL
same,Tmax,[2],0.5 h
same,Tmax,"female, Sprague-Dawley (Crl:CD(SD)), 30 mg/kg, Day 28, 30 mg/kg bw, F",1 h
same,half-life,"female, Sprague-Dawley (Crl:CD(SD)), 30 mg/kg, t1/2, Day 1, 30 mg/kg bw, F",0.95 ± 0.48 h
same,half-life,"female, Sprague-Dawley (Crl:CD(SD)), 30 mg/kg, t1/2, Day 28, 30 mg/kg bw, F",2.16 ± 1.3 h
same,AUC(0-t),[3],267 ± 174 ng·h/mL
same,AUC(0-t),[4],144 ± 45.1 ng·h/mL
same,Cmax,[3],356 ± 256 ng/mL
same,Cmax,[4],74.4 ± 31.7 ng/mL
same,Tmax,[3],0.5 h
same,Tmax,[4],1 h
same,half-life,"female, Sprague-Dawley (Crl:CD(SD)), 100 mg/kg, t1/2, Day 1, 100 mg/kg bw, F",0.97 ± 0.36 h
same,half-life,"female, Sprague-Dawley (Crl:CD(SD)), 100 mg/kg, t1/2, Day 28, 100 mg/kg bw, F",0.98 ± 0.1 h
same,AUC(0-t),[5],2.1 ± 1.9 ng·h/mL
same,Cmax,[5],1.3 ± 1.3 ng/mL
same,Tmax,[5],1 h
same,AUC(0-t),[6],14.5 ± 4.3 ng·h/mL
same,Cmax,[6],6.3 ± 3.2 ng/mL
same,AUC(0-t),[7],3.9 ± 0.8 ng·h/mL
same,AUC(0-t),[8],1.5 ± 0.6 ng·h/mL
same,Cmax,[7],3.2 ± 1.3 ng/mL
same,Cmax,[8],1.2 ± 0.3 ng/mL
same,Tmax,[7],0.5 h
same,Tmax,[8],1.67 h
same,half-life,"male, Sprague-Dawley (Crl:CD(SD)), 10 mg/kg, t1/2, Day 1, 10 mg/kg bw, M",0.9 ± 0.23 h
same,AUC(0-t),[9],25.8 ± 4.3 ng·h/mL
same,Cmax,[9],22.6 ± 10.5 ng/mL
same,Tmax,[9],0.5 h
same,half-life,"male, Sprague-Dawley (Crl:CD(SD)), 30 mg/kg, t1/2, Day 1, 30 mg/kg bw, M",1.16 ± 0.46 h
same,AUC(0-t),[10],188 ± 78.8 ng·h/mL
same,AUC(0-t),[11],107 ± 41.6 ng·h/mL
same,Cmax,[10],198 ± 98.5 ng/mL
same,Cmax,[11],40.3 ± 20.5 ng/mL
same,Tmax,[10],0.5 h
same,Tmax,[11],1 h
same,half-life,"male, Sprague-Dawley (Crl:CD(SD)), 100 mg/kg, t1/2, Day 1, 100 mg/kg bw, M",1.04 ± 0.04 h
same,half-life,"male, Sprague-Dawley (Crl:CD(SD)), 100 mg/kg, t1/2, Day 28, 100 mg/kg bw, M",1.39 ± 0.28 h
same,AUC(0-t),[12],15.6 ± 2.7 ng·h/mL
same,Cmax,[12],6.8 ± 2.3 ng/mL
same,Tmax,[12],1 h
same,half-life,"male, Sprague-Dawley [Crl:CD(SD)], 30 mg/kg, t1/2, Day 28, 30 mg/kg bw, M",1.42 ± 0.28 h

# From PMC5616206 (Toxicology Reports, 2016)
